Literature values, collected in patent US20120022114A1, “Low-dose, non-irritating nicotine nasal composition to reduce the desire to smoke” (Laboratorio Pablo Cassara S.R.L., priority 2009, published 2012).

Details: when inhaled; on average

CN1CCCC1c1cccnc1 (stereo not shown) [nicotine, Nicotine]
Time for the substance to reach the brain: about seven
